Test results reported in US20240245682A1, “ALPHA-V-BETA-8 INTEGRIN INHIBITORS AND USES THEREOF” (Pliant Therapeutics, Inc., priority 2022, published 2024).
Values joined by “and” are separate entries in the source; they are usually repeats but may differ in a detail not shown here. Equal entries are not always repeated. “Also recorded” adds a separate entry of the source.

Legend:
Pan02 tumors = test: Pan02 (pancreatic) syngeneic tumor model (Example B6); format: in vivo, C57BL/6 mice
Experimental: (§1) The therapeutic impact of Compound 39 of the examples in combination with anti PD-1 was studied for several […] mouse models, as shown in Table B-3. For each model, four dosing regimens were studied, using a group size of 10 mice per dosing regimen per model, and a total of 40 mice per model.
(§2) Mice were shaved and tumor cells as indicated in Table B-3 were subcutaneously implanted in a 100 μl cell suspension that was subcutaneously injected into the front/rear flank of each mouse (as indicated in Table B-3).
(§3) There was no dosing holiday. Dietary supplements were uniform for all animals in the same group.
Animals were monitored weekly for changes in tumor volume. Tumors were measured at least once a week using calipers. Tumor volume was calculated using the equation: (longest diameter*shortest diameter^2)/2. […]
Tumor tissues (50 to 80 mg) were homogenized using metal beads in pre-chilled RINO screw cap tubes, using lysis matrix (MP Lysing Matrix S [⅛″], 2 mL Tube MP Biomedical Cat #116925100) on MP Fast Prep 24 instrument. […] Hybridized reactions were read on nCounter MAX (Nanostring), and data were analyzed using nCounter software.
(§4) Table B-5 lists the catalog numbers of the antibodies used in the immunohistochemical (IHC) studies. Quantification of staining was done using the HALO software package (Indica Labs, Albaquerque, NM).

EMT6 tumors = test: EMT6 (breast) syngeneic tumor model (Example B6); format: in vivo, Balb/c mice
Experimental: as §1, §2, §3
Animals were monitored weekly for changes in tumor volume. Tumors were measured at least once a week using calipers. Tumor volume was calculated using the equation: (longest diameter*shortest diameter^2)/2.
The study was terminated four weeks after the first dose or when the tumor sizes reached greater than 3000 mm^3, whichever was first. Mice were euthanized and tumors were collected.
Tumor tissues (50 to 80 mg) were homogenized using metal beads in pre-chilled RINO screw cap tubes, using lysis matrix (MP Lysing Matrix S [⅛″], 2 mL Tube MP Biomedical Cat #116925100) on MP Fast Prep 24 instrument. Tumor RNA extraction from the tumor homogenate used the Ambion Purelink, RNA kit (Cat #12183018A) according to the manufacturers' protocol. A total of 100 ng RNA was used for the Nanostring analysis of the immuno-oncology and fibrosis panel, and 300 ng RNA was used for the analysis of the integrin panel. RNA was hybridized to gene expression Plexset according to the manufacturers' protocol. Hybridized reactions were read on nCounter MAX (Nanostring), and data were analyzed using nCounter software.
as §4

[1] = test system: primary human cancer associated fibroblasts (CAFs); test: CAF adhesion to TGFβ latency-associated peptide (LAP), high-content imaging; format: cell-based
Experimental: (§5) Integrin αVβ1 is expressed in multiple solid tumors and drives the adhesion of cancer-associated fibroblasts (CAFs) to latent TGFβ. In human tumor tissues and in CAFs, αVβ1 protein expression was evaluated via immunohistochemistry (IHC) and custom […] assay, respectively. CAF adhesion to the TGFβ latency-associated peptide (LAP) was quantified in the presence or absence of Compound 39 in vitro by high-content microscopy imaging. The activity of Compound 39 in combination with anti-mPD-1 on fibrotic markers was evaluated in the EMT6 tumor model in vivo by gene expression analysis using the Nanostring® nCounter analysis system. Compound 39-treated human breast tumor tissue was analyzed for fibrotic marker α-smooth muscle actin (αSMA) using immunofluorescence.
(§6) αvβ1 protein expression was evaluated in human tumor tissues via immunohistochemistry. αvβ1 protein levels in primary human CAFs isolated from pancreatic carcinoma, lung adenocarcinoma, and lung squamous cell carcinoma were quantified via custom electrochemiluminescence assay. CAF adhesion to latency associated peptide (LAP), the integrin-binding region of latent TGF-β, was quantified in the presence or absence of Compound 39 of the examples and a small molecule selective inhibitor of αvβ1 by high-content imaging in vitro. […]

TKCC-10 PDX = test: Orthotopic TKCC-10 (PDX-10) PDX model of PDAC (Example B12); format: in vivo, NSG mice
Experimental: (§7) Table B-9 depicts the study design to determine the efficacy of selective αvβ1/αvβ8 SMI in the orthotopic ECM-high PDX models of PDAC. Table B-10 depicts the study design for the TKCC-10 PDX model.
TKCC-10 PDX bearing mice were treated with dose regimen according to the schematic in Table B-9 and FIG. 24A depicts a schematic diagram of the treatment regimen in the TKCC-10 mice. FIG. 24B depicts a graph showing final tumor weight for TKCC-10 PDX bearing mice after treatment with G/A, Compound 39, and Compound 39+G/A. FIG. 24C depicts a graph showing final tumor weight for TKCC-10 PDX bearing mice after treatment with G/A, ADWA-11, and ADWA-11+G/A.

TKCC-05 tumors = test: Orthotopic TKCC-05 (PDX-05) PDX model of PDAC (Example B12); format: in vivo, NSG mice; details: FIG. 26B
Experimental: as §7
Table B-11 depicts the study design for the TKCC-05 model.
TKCC-05 cells were inoculated in the pancreas of […] mice and were allowed to grow into tumors for 1 week. The mice were then treated according to schema outlined in […], and FIG. 26A, which depicts a schematic diagram of the treatment regimen in the TKCC-05 PDAC PDX model for this study. FIG. 26B depicts a graph associated with the quantification of tumor weights in mice treated with Compound 39, Reference compound B, and ADWA-11 Ab for the study associated with Example B12. FIG. 26C depicts a graph associated with the quantification of tumor weights in mice treated with G/A, Compound 39+G/A, Reference compound B+G/A, and ADWA-11+G/A for the study associated with Example B12. P values by one-way ANOVA.

[2] = test system: human breast tumor tissue; test: Ex vivo cultured human breast tumor tissue, immunofluorescence of fibrotic markers; format: cell-based
Experimental: as §5, §6

[3] = Compound 39+α-PD1 vs vehicle+αPD1, FIG. 48, model not stated

Cc1ncnc(Cl)c1C1(C(=O)N[C@@H](CCOCCCCc2ccc3c(n2)NCCC3)C(=O)O)CC1 [Compound 39, N-(1-(4-chloro-6-methylpyrimidin-5-yl)cyclopropane-1-carbonyl)-O-(4-(5,6,7,8-tetrahydro-1,8-naphthyridin-2-yl)butyl)-L-homoserine]
tumor growth (Pan02 tumors; Pan02, FIG. 16A, 41): inhibited Pan02 tumor growth
CD8^+ T cell infiltration (Pan02 tumors; in words, FIG. 16B, 43): increased T-cell infiltration
IFNγ gene signature (EMT6 tumors; [3]): increases
TGFβ gene signatures (EMT6 tumors; [3]): Reduces
fibrotic markers and tissue fibrosis in the tumor microenvironment (EMT6 tumors; Nanostring gene expression, Pico Sirius red, FIG. 107-112): reduces fibrotic markers; also recorded: significantly reduced fibrosis
TGFβ activity (EMT6 tumors; compared to vehicle, FIG. 33, model not given): reduced TGFβ activity
expression of IFNγ-regulated gene Granzyme B (EMT6 tumors; compared to vehicle, FIG. 34A): increased expression
expression of IFNγ-regulated gene IFNγ (EMT6 tumors; compared to vehicle, FIG. 34B): increased expression
expression of IFNγ-regulated gene CXCL9 (EMT6 tumors; compared to vehicle, FIG. 34C): increased expression
expression of IFNγ-regulated gene PDL1 (EMT6 tumors; compared to vehicle, FIG. 34D): increased expression
adhesion of CAFs to LAP ([1]; LUAD, LUSC and pancreatic stellate CAFs, FIG. 103-105): inhibits the adhesion of LUAD, LUSC, and PSC CAFs to TGFβ latency-associated peptide in a dose-dependent manner; also recorded: blocked the binding of CAFs to LAP; also recorded: significantly block in vitro binding of primary human CAFs to LAP
binding of latency associated peptide (LAP) to αvβ1 ([1]; cell adhesion assays): prevented
mean tumor weight (TKCC-10 PDX; 30 days, Compound 39 300 mg/kg BID oral, G 100 mg/kg / A 30 mg/kg i.p. once per week, FIG. 24B): 0.798 ± 0.17 g
mean number of lung metastases (TKCC-10 PDX; FIG. 25D): 4.1±3.2
tumor weight / tumor growth (TKCC-10 PDX; in words, FIG. 24C, 73): significantly blocked tumor growth and improved the response to the standard of care (SOC) chemotherapy G/A
mean tumor weight (TKCC-05 tumors; 30 days treatment): 0.23 ± 0.08 g and 0.228 ± 0.06 g
tumor weight / tumor growth (TKCC-05 tumors; in words, 26C): significantly blocks tumor growth
reduction of fibroblast activation marker αSMA ([2]; compared to vehicle-treated tissues, FIG. 106): 2.9 fold
expression of fibrotic markers (αSMA, FAP) ([2]; in words): decreases; also recorded: reduced expression of fibrotic markers αSMA and FAP
